This passage reports IC50 results from patent publication US8987315B2, “Metalloenzyme inhibitor compounds” (Innocrin Pharmaceuticals, Inc., priority 2009, dated 2015).

In assay [1] the target is CYP17 (Rattus norvegicus (Rat), UniProt P11715). Description: Inhibition of CYP17 (rat testicular microsomes). The assay is classed as biochemical. As to conditions: pooled rat testicular microsomes.
The target in assay [2] is CYP2C9 (Homo sapiens (Human), UniProt P11712). Description: Inhibition of liver cytochrome P450 enzymes (human liver microsomes), CYP2C9. Background: Liver microsomes are vesicles of endoplasmic reticulum, rich in cytochrome P450 enzymes.
CYP2C9, sequence (P11712 whole entry): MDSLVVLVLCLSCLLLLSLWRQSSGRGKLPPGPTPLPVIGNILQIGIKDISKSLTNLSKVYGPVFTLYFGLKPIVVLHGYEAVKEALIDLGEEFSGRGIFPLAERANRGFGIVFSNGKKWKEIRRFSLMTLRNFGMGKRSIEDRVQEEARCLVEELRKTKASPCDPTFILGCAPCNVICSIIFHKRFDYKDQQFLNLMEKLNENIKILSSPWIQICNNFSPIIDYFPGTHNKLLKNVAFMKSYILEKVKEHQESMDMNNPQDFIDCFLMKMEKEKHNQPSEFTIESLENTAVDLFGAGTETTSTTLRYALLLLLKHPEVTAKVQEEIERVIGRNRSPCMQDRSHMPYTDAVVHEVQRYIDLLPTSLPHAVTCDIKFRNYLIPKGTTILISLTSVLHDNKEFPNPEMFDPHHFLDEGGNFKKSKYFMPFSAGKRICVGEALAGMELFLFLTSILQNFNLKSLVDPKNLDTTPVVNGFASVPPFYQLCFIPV
The target in assay [3] is CYP3A4 (Homo sapiens (Human), UniProt P08684). Description: Inhibition of liver cytochrome P450 enzymes (human liver microsomes), CYP3A4.
CYP3A4, sequence (P08684 whole entry): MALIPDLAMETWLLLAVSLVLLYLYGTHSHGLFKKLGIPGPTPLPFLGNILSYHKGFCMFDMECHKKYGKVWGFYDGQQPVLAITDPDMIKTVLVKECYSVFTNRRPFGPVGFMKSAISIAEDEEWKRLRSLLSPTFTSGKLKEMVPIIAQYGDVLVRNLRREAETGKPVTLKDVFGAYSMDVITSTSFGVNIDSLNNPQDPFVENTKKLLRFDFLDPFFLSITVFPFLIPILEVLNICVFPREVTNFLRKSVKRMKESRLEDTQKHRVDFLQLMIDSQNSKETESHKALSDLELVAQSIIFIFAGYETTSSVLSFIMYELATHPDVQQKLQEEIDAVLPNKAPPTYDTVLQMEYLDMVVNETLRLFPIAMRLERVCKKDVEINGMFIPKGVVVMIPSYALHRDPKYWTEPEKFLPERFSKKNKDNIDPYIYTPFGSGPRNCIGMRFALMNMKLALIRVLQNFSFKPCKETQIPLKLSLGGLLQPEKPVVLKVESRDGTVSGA
Assay [4] addresses CYP2C19 (Homo sapiens (Human), UniProt P33261). Description: Inhibition of liver cytochrome P450 enzymes (human liver microsomes), CYP2C19.

CYP2C19, sequence (P33261 whole entry): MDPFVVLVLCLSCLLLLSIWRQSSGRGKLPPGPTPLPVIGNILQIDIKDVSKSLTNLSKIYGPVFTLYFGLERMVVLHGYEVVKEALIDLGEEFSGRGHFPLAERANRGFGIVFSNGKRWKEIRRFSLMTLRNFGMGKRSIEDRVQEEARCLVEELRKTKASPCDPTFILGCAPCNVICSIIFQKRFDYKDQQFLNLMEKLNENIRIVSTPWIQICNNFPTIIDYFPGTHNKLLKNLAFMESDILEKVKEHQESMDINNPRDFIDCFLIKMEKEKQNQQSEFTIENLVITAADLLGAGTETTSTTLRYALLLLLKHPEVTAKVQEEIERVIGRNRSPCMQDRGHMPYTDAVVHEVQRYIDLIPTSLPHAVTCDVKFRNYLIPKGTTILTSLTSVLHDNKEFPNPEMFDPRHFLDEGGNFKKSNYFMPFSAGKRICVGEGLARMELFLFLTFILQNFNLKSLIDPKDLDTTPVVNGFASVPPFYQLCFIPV
CYP17, sequence (P11715 whole entry): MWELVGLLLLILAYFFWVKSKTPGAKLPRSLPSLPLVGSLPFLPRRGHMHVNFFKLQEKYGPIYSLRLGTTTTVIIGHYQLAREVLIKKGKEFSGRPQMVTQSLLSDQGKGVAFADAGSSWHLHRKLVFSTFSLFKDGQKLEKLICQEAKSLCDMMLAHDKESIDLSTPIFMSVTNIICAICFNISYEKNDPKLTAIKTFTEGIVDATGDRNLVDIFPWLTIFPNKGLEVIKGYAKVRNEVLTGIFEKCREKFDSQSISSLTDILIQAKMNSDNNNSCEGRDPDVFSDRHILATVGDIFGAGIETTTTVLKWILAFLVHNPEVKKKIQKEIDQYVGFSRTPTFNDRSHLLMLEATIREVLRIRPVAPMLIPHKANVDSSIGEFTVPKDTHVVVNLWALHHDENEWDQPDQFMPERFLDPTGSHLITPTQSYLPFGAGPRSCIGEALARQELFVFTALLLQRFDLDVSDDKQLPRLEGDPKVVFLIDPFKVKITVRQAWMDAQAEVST

Take `CC(C)C(c1ccc2cc(OC(F)F)c(OC(F)F)cc2c1)n1ncnn1` (centres unmarked) [Example 1, 2-(1-(6,7-bis(difluoromethoxy)naphthalen-2-yl)-2-methylpropyl)-2H-tetrazole]: the IC50 in assay [1] is 0.4 µM; in assay [2], 7 µM; in assay [3], more than 200 µM; in assay [4], 37 µM.

Take `CC(C)C(c1ccc2cc(OCC(F)(F)F)ccc2c1)n1ncnn1` (centres unmarked) [Example 2, 2-(2-Methyl-1-(6-(2,2,2-trifluoroethoxy)naphthalen-2-yl)propyl)-2H-tetrazole]: the results for the IC50 in assay [1], in assay [2] and in assay [4] were 0.46 µM, 27 µM and 45 µM, respectively.

With `COc1cc2ccc(C(C(C)C)n3ncnn3)cc2cc1OC` (centres unmarked) [Example 3, 2-(1-(6,7-Dimethoxynaphthalen-2-yl)-2-methylpropyl)-2H-tetrazole], the 50% inhibitory concentration (IC50) was 0.27 µM in assay [1], 4.8 µM in assay [2], more than 200 µM in assay [3] and 30 µM in assay [4].

Consider `CC(C)C(c1ccc2cc(OC(F)F)ccc2c1)n1ncnn1` (centres unmarked) [Example 4, 2-(1-(6-(difluoromethoxy)naphthalen-2-yl)-2-methylpropyl)-2H-tetrazole], for which the IC50 turned out to be 0.21 µM in assay [1], 15 µM in assay [2] and 35 µM in assay [4].

As a reminder, the IC50 is the concentration at which inhibition is half-maximal. A lower IC50 goes with greater potency.
